Laboratory results: US20240246992A1, “MACROCYCLIC LRRK2 KINASE INHIBITORS” (LES LABORATOIRES SERVIER, priority 2021, published 2024)

Target: human recombinant LRRK2 protein (Homo sapiens, UniProt Q5S007)
Test: LRRK2 kinase activity assay (ADP-Glo, LRRKtide peptide)
Format: biochemical
Conditions: human recombinant LRRK2 wt, LRRKtide peptide and ATP, 1 h at 37° C.
Procedure, shortened: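 ADP-Glo luminescence read-out of a peptide assay: compound, ATP and LRRKtide substrate combined with recombinant human LRRK2 and incubated at 37 °C for 1 h. Ten-point data, N=2, curve-fitted to IC50.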

human recombinant LRRK2 protein, sequence (Q5S007 whole entry): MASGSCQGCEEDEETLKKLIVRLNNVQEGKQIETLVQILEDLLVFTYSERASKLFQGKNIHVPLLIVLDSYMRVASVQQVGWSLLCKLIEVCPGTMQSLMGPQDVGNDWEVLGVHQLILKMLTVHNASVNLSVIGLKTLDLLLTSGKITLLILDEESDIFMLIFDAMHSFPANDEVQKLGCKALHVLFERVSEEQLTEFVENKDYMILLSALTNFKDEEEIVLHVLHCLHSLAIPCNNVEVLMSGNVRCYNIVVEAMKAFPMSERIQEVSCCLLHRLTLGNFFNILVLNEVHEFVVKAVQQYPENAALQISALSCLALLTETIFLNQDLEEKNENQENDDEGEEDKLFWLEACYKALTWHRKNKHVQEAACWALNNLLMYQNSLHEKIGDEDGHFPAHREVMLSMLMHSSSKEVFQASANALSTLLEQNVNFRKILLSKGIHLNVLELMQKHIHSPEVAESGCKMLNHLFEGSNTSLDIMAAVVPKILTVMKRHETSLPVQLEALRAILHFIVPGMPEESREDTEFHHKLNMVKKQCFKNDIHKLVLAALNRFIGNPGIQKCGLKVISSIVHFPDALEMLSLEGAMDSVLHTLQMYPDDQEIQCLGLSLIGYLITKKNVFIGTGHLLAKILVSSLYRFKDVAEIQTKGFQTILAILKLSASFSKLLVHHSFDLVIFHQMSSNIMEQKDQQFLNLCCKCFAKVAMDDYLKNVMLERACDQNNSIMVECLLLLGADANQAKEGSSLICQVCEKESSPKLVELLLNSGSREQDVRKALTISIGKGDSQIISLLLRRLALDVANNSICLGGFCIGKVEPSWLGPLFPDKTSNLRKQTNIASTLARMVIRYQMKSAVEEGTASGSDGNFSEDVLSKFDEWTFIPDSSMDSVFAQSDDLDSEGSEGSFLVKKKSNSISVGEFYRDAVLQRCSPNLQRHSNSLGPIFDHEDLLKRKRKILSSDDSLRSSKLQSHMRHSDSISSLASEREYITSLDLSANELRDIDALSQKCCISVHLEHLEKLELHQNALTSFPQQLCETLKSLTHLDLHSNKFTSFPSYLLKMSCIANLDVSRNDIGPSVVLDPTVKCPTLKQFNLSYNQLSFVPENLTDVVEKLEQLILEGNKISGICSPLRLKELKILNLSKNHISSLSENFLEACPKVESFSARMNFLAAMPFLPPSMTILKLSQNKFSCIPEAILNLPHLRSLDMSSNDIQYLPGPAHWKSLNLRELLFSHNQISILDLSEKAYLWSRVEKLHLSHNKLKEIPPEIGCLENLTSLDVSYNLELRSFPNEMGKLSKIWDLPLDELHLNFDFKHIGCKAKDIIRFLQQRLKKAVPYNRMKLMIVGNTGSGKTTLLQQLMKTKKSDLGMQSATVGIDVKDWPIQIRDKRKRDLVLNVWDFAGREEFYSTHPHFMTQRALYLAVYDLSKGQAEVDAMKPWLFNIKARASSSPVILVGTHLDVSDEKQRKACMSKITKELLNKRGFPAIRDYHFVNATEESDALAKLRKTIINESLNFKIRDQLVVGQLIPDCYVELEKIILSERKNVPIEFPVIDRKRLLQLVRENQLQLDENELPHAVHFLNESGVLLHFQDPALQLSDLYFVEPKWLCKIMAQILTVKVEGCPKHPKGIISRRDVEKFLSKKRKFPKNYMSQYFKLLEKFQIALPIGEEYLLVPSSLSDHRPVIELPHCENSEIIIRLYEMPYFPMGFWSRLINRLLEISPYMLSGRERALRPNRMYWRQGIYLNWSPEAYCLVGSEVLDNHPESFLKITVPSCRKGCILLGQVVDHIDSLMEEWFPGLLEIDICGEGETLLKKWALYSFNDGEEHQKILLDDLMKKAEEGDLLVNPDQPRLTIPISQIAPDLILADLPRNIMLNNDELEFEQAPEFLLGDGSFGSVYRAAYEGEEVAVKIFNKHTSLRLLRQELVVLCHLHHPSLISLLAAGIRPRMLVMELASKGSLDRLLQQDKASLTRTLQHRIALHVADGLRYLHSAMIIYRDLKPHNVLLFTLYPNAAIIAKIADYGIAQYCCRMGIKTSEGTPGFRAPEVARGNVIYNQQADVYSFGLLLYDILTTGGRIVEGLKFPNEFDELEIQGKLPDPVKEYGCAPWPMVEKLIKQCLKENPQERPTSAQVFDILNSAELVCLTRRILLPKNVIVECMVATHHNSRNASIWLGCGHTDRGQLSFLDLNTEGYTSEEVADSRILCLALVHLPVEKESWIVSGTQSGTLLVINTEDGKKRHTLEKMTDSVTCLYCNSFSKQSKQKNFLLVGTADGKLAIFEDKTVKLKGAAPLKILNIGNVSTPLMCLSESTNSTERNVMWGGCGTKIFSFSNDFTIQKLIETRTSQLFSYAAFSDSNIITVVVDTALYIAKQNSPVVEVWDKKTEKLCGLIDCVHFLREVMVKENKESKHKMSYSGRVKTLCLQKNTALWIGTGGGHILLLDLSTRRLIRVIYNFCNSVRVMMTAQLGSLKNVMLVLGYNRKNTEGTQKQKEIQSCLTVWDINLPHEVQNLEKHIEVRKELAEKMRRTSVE

Compound	IC50 [nM]
Cc1ccc2cc1OCC(=O)NCCCOc1ccc3[nH]nc-2c3c1 [Example 140, 5-methyl-7,14-dioxa-10,19,20-triazatetracyclo[13.5.2.1^2,6.0^18,21] tricosa-1(20),2,4,6(23),15,17,21-heptaen-9-one]	< 10
Cc1ccc2cc1OCCNCCCOc1ccc3[nH]nc-2c3c1 [Example 141, 5-methyl-7,14-dioxa-10,19,20-triazatetracyclo[13.5.2.1^2,6.0^18,21] tricosa-1(20),2,4,6(23),15,17,21-heptaene]	< 10
O=C1COc2cc(Cl)cc(c2)-c2n[nH]c3ccc(cc23)OCCCN1 [Example 142, 4-chloro-7,14-dioxa-10,19,20-triazatetracyclo[13.5.2.1^2,6.0^18,21]tricosa-1(20),2,4,6(23),15,17,21-heptaen-9-one]	< 10
Clc1cc2cc(c1)-c1n[nH]c3ccc(cc13)OCCCNCCO2 [Example 143, 4-chloro-7,14-dioxa-10,19,20-triazatetracyclo[13.5.2.1^2,6.0^18,21]tricosa-1(20),2,4,6(23),15,17,21-heptaene]	< 10
Cc1cc2cc(c1)-c1n[nH]c3ccc(cc13)OCCCNC(=O)CO2 [Example 144, 4-methyl-7,14-dioxa-10,19,20-triazatetracyclo[13.5.2.1^2,6.0^18,21]tricosa-1(20),2(23),3,5,15,17,21-heptaen-9-one]	< 10
Cc1cc2cc(c1)-c1n[nH]c3ccc(cc13)OCCCNCCO2 [Example 145, 4-methyl-7,14-dioxa-10,19,20-triazatetracyclo[13.5.2.1^2,6.0^18,21]tricosa-1(20),2(23),3,5,15,17,21-heptaene]	< 10
O=C1COc2cc(cc(C3CCOCC3)c2)-c2n[nH]c3ccc(cc23)OCCCN1 [Example 146, 4-(oxan-4-yl)-7,14-dioxa-10,19,20-triazatetracyclo[13.5.2.1^2,6.0^18,21]tricosa-1(20),2(23),3,5,15,17,21-heptaen-9-one]	< 10
c1cc2[nH]nc3c2cc1OCCCNCCOc1cc-3cc(C2CCOCC2)c1 [Example 147, 4-(oxan-4-yl)-7,14-dioxa-10,19,20-triazatetracyclo[13.5.2.1^2,6.0^18,21]tricosa-1(20),2(23),3,5,15,17,21-heptaene]	< 10
O=C1COc2cc(cc(C3CCCOC3)c2)-c2n[nH]c3ccc(cc23)OCCCN1 (stereo not shown) [Example 148, 4-(oxan-3-yl)-7,14-dioxa-10,19,20-triazatetracyclo[13.5.2.1^2,6.0^18,21]tricosa-1(20),2(23),3,5,15,17,21-heptaen-9-one]	< 10
c1cc2[nH]nc3c2cc1OCCCNCCOc1cc-3cc(C2CCCOC2)c1 (stereo not shown) [Example 149, 4-(oxan-3-yl)-7,14-dioxa-10,19,20-triazatetracyclo[13.5.2.1^2,6.0^18,21]tricosa-1(20),2(23),3,5,15,17,21-heptaene]	< 10
O=C1COc2cccc(c2)-c2n[nH]c3ccc(cc23)OCCC(CF)N1 (stereo not shown) [Example 154, 11-(fluoromethyl)-7,14-dioxa-10,19,20-triazatetracyclo [13.5.2.1^2,6.0^18,21]tricosa-1(20),2,4,6(23),15,17,21-heptaen-9-one]	< 100
FCC1CCOc2ccc3[nH]nc(c3c2)-c2cccc(c2)OCCN1 (stereo not shown) [Example 155, 11-(fluoromethyl)-7,14-dioxa-10,19,20-triazatetracyclo [13.5.2.1^2,6.0^18,21]tricosa-1(20),2,4,6(23),15,17,21-heptaene]	< 100
O=C1NCCCOc2ccc3[nH]nc(c3c2)-c2cncc(c2)OC12CC2 [Example 156, 7′,14′-dioxa-4′,10′,19′,20′-tetraazaspiro[cyclopropane-1,8′-tetracyclo[13.5.2.1^2,6.0^18,21]tricosane]-1′(20′),2′(23′),3′,5′,15′,17′,21′-heptaen-9′-one]	< 100
c1cc2[nH]nc3c2cc1OCCCNCC1(CC1)Oc1cncc-3c1 [Example 157, 7′,14′-dioxa-4′,10′,19′,20′-tetraazaspiro[cyclopropane-1,8′-tetracyclo[13.5.2.1^2,6.0^18,21]tricosane]-1′(20′),2′(23′),3′,5′,15′,17′,21′-heptaene]	< 10
CC1CCNC(=O)COc2cncc(c2)-c2n[nH]c3ccc(cc23)O1 (stereo not shown) [Example 158, 13-methyl-7,14-dioxa-4,10,19,20-tetraazatetracyclo[13.5.2.1^2,6.0^18,21]tricosa-1(20),2,4,6(23),15,17,21-heptaen-9-one]	< 100
CC1CCNCCOc2cncc(c2)-c2n[nH]c3ccc(cc23)O1 (stereo not shown) [Example 159, 13-methyl-7,14-dioxa-4,10,19,20-tetraazatetracyclo[13.5.2.1^2,6.0^18,21]tricosa-1(20),2,4,6(23),15,17,21-heptaene]	< 10
CC1Oc2cncc(c2)-c2n[nH]c3ccc(cc23)OCCCN(C)C1=O (stereo not shown) [Example 160, 8,10-dimethyl-7,14-dioxa-4,10,19,20-tetraazatetracyclo [13.5.2.1^2,6.0^18,21]tricosa-1(20),2,4,6(23),15,17,21-heptaen-9-one]	< 100
CC1CN(C)CCCOc2ccc3[nH]nc(c3c2)-c2cncc(c2)O1 (stereo not shown) [Example 161, 8,10-dimethyl-7,14-dioxa-4,10,19,20-tetraazatetracyclo [13.5.2.1^2,6.0^18,21]tricosa-1(20),2,4,6(23),15,17,21-heptaene]	< 100
C[C@@H]1CCNC(=O)COc2cncc(c2)-c2n[nH]c3ccc(cc23)O1 [Example 162, (13R)-13-methyl-7,14-dioxa-4,10,19,20-tetraazatetracyclo[13.5.2.1^2,6.0^18,21]tricosa-1(20),2,4,6(23),15(22),16,18(21)-heptaen-9-one]	< 100
C[C@@H]1CCNCCOc2cncc(c2)-c2n[nH]c3ccc(cc23)O1 [Example 163, (13R)-13-methyl-7,14-dioxa-4,10,19,20-tetraazatetracyclo[13.5.2.1^2,6.0^18,21]tricosa-1(20),2,4,6(23),15(22),16,18(21)-heptaene]	< 10
O=C1NCCCOc2ccc3[nH]nc(c3c2)-c2cccc(c2)[C@H]2C[C@H]12 [Example 164, (7S,9S)-15-oxa-11,20,21-triazapentacyclo[14.5.2.1^2,6.0^7,9.0^19,22] tetracosa-1(21),2(24),3,5,16(23),17,19(22)-heptaen-10-one]	< 100
c1cc2cc(c1)[C@H]1C[C@@H]1CNCCCOc1ccc3[nH]nc-2c3c1 [Example 165, (7S,9S)-15-oxa-11,20,21-triazapentacyclo[14.5.2.1^2,6.0^7,9.0^19,22]tetracosa-1(21),2(24),3,5,16(23),17,19(22)-heptaene]	< 1000
O=C1CCc2cccc(c2)-c2n[nH]c3ccc(cc23)OCCCN1 [Example 166, 14-oxa-10,19,20-triazatetracyclo[13.5.2.1^2,6.0^18,21]tricosa-1(20),2(23),3,5,15(22),16,18(21)-heptaen-9-one]	< 10
c1cc2cc(c1)-c1n[nH]c3ccc(cc13)OCCCNCCC2 [Example 167, 14-oxa-10,19,20-triazatetracyclo[13.5.2.1^2,6.0^18,21]tricosa-1(20),2(23),3,5,15(22),16,18(21)-heptaene]	< 10
C[C@@H]1COc2ccc3[nH]nc(c3c2)-c2cccc(c2)OCC(=O)N[C@H]1C [Example 168, (11S,12S)-11,12-dimethyl-7,14-dioxa-10,19,20-triazatetracyclo[13.5.2.1^2,6.0^18,21]tricosa-1(20),2(23),3,5,15(22),16,18(21)-heptaen-9-one]	< 100
